From PubChem BioAssay (NCI)
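How tested: cells in 96-well plates exposed to compound for 48 hours at five concentrations. Here, GI50 denotes the concentration required for 50% inhibition of growth. TGI is the concentration that stops growth completely.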

Legend:
Test in all cases: NCI anticancer screen, dose series, 48 h
SF-295 CNS = test system: SF-295 CNS
SK-MEL-28 melanoma = test system: SK-MEL-28 melanoma
SNB-75 CNS = test system: SNB-75 CNS
HCC-2998 colon = test system: HCC-2998 colon
SN12C renal = test system: SN12C renal
NCI-H226 lung = test system: NCI-H226 lung
OVCAR-3 ovarian = test system: OVCAR-3 ovarian
A549 NSCLC = test system: A549 NSCLC
HOP-62 NSCLC = test system: HOP-62 NSCLC
PC-3 prostate = test system: PC-3 prostate

Row | Compound | TGI (SF-295 CNS) [µM] | TGI (SK-MEL-28 melanoma) [µM] | TGI (SNB-75 CNS) [µM] | TGI (HCC-2998 colon) [µM] | TGI (SN12C renal) [µM] | TGI (NCI-H226 lung) [µM] | TGI (OVCAR-3 ovarian) [µM] | TGI (A549 NSCLC) [µM] | TGI (HOP-62 NSCLC) [µM] | GI50 (PC-3 prostate) [µM] | TGI (PC-3 prostate) [µM] | GI50 (SF-295 CNS) [µM] | GI50 (SK-MEL-28 melanoma) [µM] | GI50 (SNB-75 CNS) [µM] | GI50 (HCC-2998 colon) [µM] | GI50 (SN12C renal) [µM] | GI50 (NCI-H226 lung) [µM] | GI50 (OVCAR-3 ovarian) [µM] | GI50 (A549 NSCLC) [µM]
1 | COc1cc(N=Nc2cccc(S(=O)(=O)O)c2)c(C)cc1N=Nc1ccc(/C=C/c2ccc(N=[N+]([O-])c3ccc(/C=C/c4ccc(N=Nc5cc(C)c(N=Nc6cccc(S(=O)(=O)O)c6)cc5OC)cc4)c(S(=O)(=O)O)c3)cc2S(=O)(=O)O)cc1 | > 100 | > 100 | > 100 | > 100 | > 100 | > 100 | > 100 | > 100 | > 100 | – | – | – | – | – | – | – | – | – | –
2 | COC(=O)C(C)N1C(=O)c2ccccc2I1OC(C)=O (stereo not given) | > 100 | > 100 | > 100 | 38.4 | > 100 | > 100 | > 100 | > 100 | – | > 100 | > 100 | > 100 | 88 | 60.8 | 17.4 | 31.4 | > 100 | 23.3 | > 100
3 | CC(C)(C)OC(=O)NC(Cc1ccccc1)C(=O)N[C@H]1c2ccsc2/C(=N/O)[C@H]1O (stereo not given in full) | > 100 | – | – | > 100 | > 100 | > 100 | > 100 | > 100 | > 100 | – | > 100 | – | – | – | – | – | – | – | –
